From patent US5994342A, “3-(substituted methyl)-4-oxa-1-azabicyclo[3.2.0]heptan-7-one derivatives useful as antitumor agents” (priority 1994, dated 1999) come the findings set out here.

Values after ≈ are worked out from the molar mass of the structure shown. Counter-ions that a name gives are not always drawn.

Data set [1] concerns KB cells. Description: In vitro KB cell cytotoxicity assay (crystal violet). It counts as cell-based. As to conditions: Homo sapiens, 72 h, 3 days culture, read-out: KB Cell Cytotoxicity TD50. The procedure: In Vitro KB Cell Cytotoxicity Assay In vitro KB cell cytoxocity assay was done by modification of the crystal violet assay ([…] et al., Anal Biochem., 159, 109-113 (1986). KB cells were cultivated in Eagles minimum essential medium supplemented with 10% calf serum and incubated at 37° C. in a humidified 5% CO2 atmosphere to prepare a cell stock. Cells were counted using a neubauer hemocytometer and seeded in 96 well plates at 100 μl of 3×10^4 cells/ml and cultured for one day. […] Control wells were identical except that test compound was absent. These were cultured for three days. Then the cells were fixed with addition of 20 μl of 25% glutaraldehyde for 15 minutes, washed with water and dried. Then stained with 100 μl of 0.05% crystal violet for 15 minutes, washed with water and dried. The wells are eluted with […] of 0.05M NaH2 PO4 /ethanol (1:1 v/v) and read at OD540 on a multiscan spectrophotometer. Inhibition value of cell growth was calculated based on optical density using the following equation; [formula] TD50 values were calculated from linear regression ines of the log-logit plot.

Data set [2] relates to Sarcoma 180. The experiment in a line: In vivo antitumor activity against Sarcoma 180. Details: species or system male ICR mice. As to conditions: i.p., days 1, 5 and 9. The procedure: In Vivo Antitumor Activity Against Sarcoma 180
The compounds of general formula (I) were tested in vivo against Sarcoma 180 xenografted tumor to mice as illustrated herein after.
Sarcoma 180, 5×10^6 cells were inoculated by S.C. to male ICR mice (6 week old) on day 0. Drugs were administered on days 1, 5 and 9. Mice were killed and tumor weight was measured on day 12 after transplantation. The percentage inhibition of tumor growth was calculated from the mean tumor weight of the treated group compared with that of the control group. Number of mice used in each group was between 6 to 7.

The mark [3] stands for this setting: Mus musculus, Sarcoma-180, ip, 288 h, 40 mg/kg/day, tumor s.c., tumor weight day 12, read-out: % Inhibition of tumor growth.
The mark [4] stands for this setting: Mus musculus, Sarcoma-180, ip, 288 h, 100 mg/kg/day, tumor s.c., tumor weight day 12, read-out: % Inhibition of tumor growth.
Where [5] appears, read: Mus musculus, Sarcoma-180, ip, 288 h, 12.5 mg/kg/day, tumor s.c., tumor weight day 12, read-out: % Inhibition of tumor growth.
Where [6] appears, read: Mus musculus, Sarcoma-180, ip, 288 h, 25 mg/kg/day, tumor s.c., tumor weight day 12, read-out: % Inhibition of tumor growth.
Setting [7] is: Mus musculus, Sarcoma-180, ip, 288 h, 50 mg/kg/day, tumor s.c., tumor weight day 12, read-out: % Inhibition of tumor growth.

As for `O=C(CCl)NC[C@@H]1CN2C(=O)C[C@H]2O1` (racemic) [Example 8, (3RS,5RS)-3-(N-Chloroacetylaminomethyl)-4-oxa-1-azabicyclo[3.2.0]heptan-7-one], the IC50 in data set [1] was found to be 0.084 µg/mL (≈ 0.384 µM). Further, the “Mortality in 12 days” value in data set [2] (8.8 mg/kg/day) is recorded as 0/6; in data set [2] (17.5 mg/kg/day) it was 0/6; in data set [2] (35 mg/kg/day), 1/6. Besides, the inhibition in vivo at 8.8 mg/kg in data set [2] (Mus musculus, Sarcoma-180, ip, 288 h, 8.8 mg/kg/day, tumor s.c., tumor weight day 12, read-out: % Inhibition of tumor growth) came to 39%. In addition, the inhibition in vivo at 17.5 mg/kg in data set [2] (Mus musculus, Sarcoma-180, ip, 288 h, 17.5 mg/kg/day, tumor s.c., tumor weight day 12, read-out: % Inhibition of tumor growth) is 51.3%. In data set [2] (Mus musculus, Sarcoma-180, ip, 288 h, 35 mg/kg/day, tumor s.c., tumor weight day 12, read-out: % Inhibition of tumor growth), the inhibition in vivo at 35 mg/kg was 64%.

For `Cl.NC[C@@H]1CN2C(=O)C[C@H]2O1` (racemic) [Example 22, (3RS,5RS)-3-aminomethyl-4-oxa-1-azabicyclo[3.2.0]heptan-7-one hydrochloride], in data set [1], the IC50 came out at 0.344 µg/mL. Further, the “Mortality in 12 days” value in data set [2] (40 mg/kg/day) and in data set [2] (80 mg/kg/day) was 0/6 throughout. In data set [2] (setting [3]), the inhibition in vivo at 40 mg/kg was 26.7%. For the same compound, the inhibition in vivo at 80 mg/kg in data set [2] (Mus musculus, Sarcoma-180, ip, 288 h, 80 mg/kg/day, tumor s.c., tumor weight day 12, read-out: % Inhibition of tumor growth) was 40.3%.

Consider `O=C(NC[C@@H]1CN2C(=O)C[C@H]2O1)c1ccccc1` (racemic) [Example 23, (3RS,5RS)-3-(N-Benzoylaminomethyl)-4-oxa-1-azabicyclo[3.2.0]heptan-7-one], for which, in data set [1], the IC50 is 0.088 µg/mL (≈ 0.357 µM). Further, in data set [2] (100 mg/kg/day), the “Mortality in 12 days” value is on record as 0/6. In data set [2] (setting [4]), the inhibition in vivo at 100 mg/kg was 27.8%.

`O=C(Cc1cccs1)NC[C@@H]1CN2C(=O)C[C@H]2O1` (racemic) [Example 31, (3RS,5RS)-3-[N-(Thiophen-2-yl)acetylaminomethyl]-4-oxa-1-azabicyclo[3.2.0]heptan-7-one]: the IC50 in data set [1] is 0.098 µg/mL (≈ 0.368 µM). For the same compound, the “Mortality in 12 days” value in data set [2] (40 mg/kg/day) was 1/6. In data set [2] (setting [3]), the inhibition in vivo at 40 mg/kg is 35.5%.

With `CCN(CC)C(=O)NC[C@@H]1CN2C(=O)C[C@H]2O1` (racemic) [Example 33, (3RS,5RS)-3-[N-(N,N-Diethylcarbamyl)]aminomethyl-4-oxa-1-azabicyclo[3.2.0]heptan-7-one], the IC50 in data set [1] came to 0.246 µg/mL (≈ 1.02 µM). Besides, the “Mortality in 12 days” value in data set [2] (22.5 mg/kg/day), in data set [2] (45 mg/kg/day) and in data set [2] (90 mg/kg/day) was 0/6 in each case. The inhibition in vivo at 22.5 mg/kg in data set [2] (Mus musculus, Sarcoma-180, ip, 288 h, 22.5 mg/kg/day, tumor s.c., tumor weight day 12, read-out: % Inhibition of tumor growth) was 46.6%. The inhibition in vivo at 45 mg/kg in data set [2] (Mus musculus, Sarcoma-180, ip, 288 h, 45 mg/kg/day, tumor s.c., tumor weight day 12, read-out: % Inhibition of tumor growth) is 66.2%. In addition, the inhibition in vivo at 90 mg/kg in data set [2] (Mus musculus, Sarcoma-180, ip, 288 h, 90 mg/kg/day, tumor s.c., tumor weight day 12, read-out: % Inhibition of tumor growth) stood at 74.5%.

As for `O=C(NC[C@@H]1CN2C(=O)C[C@H]2O1)NC[C@@H]1CN2C(=O)C[C@H]2O1` (racemic) [Example 34, N,N'-Di-{[(3RS,5RS)-7-oxo-1-aza-4-oxabicyclo[3.2.0]hept-3-yl]methyl}urea], in data set [1], the IC50 was found to be 0.151 µg/mL (≈ 0.487 µM). Besides, the “Mortality in 12 days” value is 0/6 in data set [2] (6.25 mg/kg/day), 0/6 in data set [2] (12.5 mg/kg/day) and 5/6 in data set [2] (25 mg/kg/day). Moreover, the inhibition in vivo at 6.25 mg/kg in data set [2] (Mus musculus, Sarcoma-180, ip, 288 h, 6.25 mg/kg/day, tumor s.c., tumor weight day 12, read-out: % Inhibition of tumor growth) was found to be 59.8%. Besides, the inhibition in vivo at 12.5 mg/kg in data set [2] (setting [5]) was 76.3%. In addition, the inhibition in vivo at 25 mg/kg in data set [2] (setting [6]) was determined as 92.5%.

`CS(=O)(=O)NC[C@H]1CN2C(=O)C[C@H]2O1` (racemic) [Example 35, (3RS,5RS)-3-(N-Methanesulfonylaminomethyl)-4-oxa-1-azabicyclo[3.2.0]heptan-7-one]: in data set [1], the IC50 is 0.198 µg/mL (≈ 0.899 µM). In addition, the “Mortality in 12 days” value in data set [2] (100 mg/kg/day) is 1/6. Besides, the inhibition in vivo at 100 mg/kg in data set [2] (setting [4]) came out at 64.6%.

As to `Cl.NCC(=O)OC[C@H]1CN2C(=O)C[C@@H]2O1` (racemic) [Example 39, (3RS,5SR)-3-(Aminoacetyl)oxymethyl-4-oxa-1-azabicyclo[3.2.0]heptan-7-one hydrochloride], the IC50 in data set [1] came out at 0.613 µg/mL. The “Mortality in 12 days” value in data set [2] (12.5 mg/kg/day), in data set [2] (25 mg/kg/day) and in data set [2] (50 mg/kg/day) was 0/6 in each case. In data set [2] (setting [5]), the inhibition in vivo at 12.5 mg/kg was determined as 41.9%. In addition, the inhibition in vivo at 25 mg/kg in data set [2] (setting [6]) was found to be 56.7%. The inhibition in vivo at 50 mg/kg in data set [2] (setting [7]) came out at 76.7%.

For the compound `Cl.NCC(=O)NCC(=O)OC[C@H]1CN2C(=O)C[C@@H]2O1` (racemic) [Example 40B, (3RS,5SR)-3-[N-(Aminoacetyl)aminoacetyl]oxymethyl-4-oxa-1-azabicyclo[3.2.0]heptan-7-one hydrochloride], the IC50 in data set [1] is 0.636 µg/mL. For the same compound, the “Mortality in 12 days” value in data set [2] (12.5 mg/kg/day), in data set [2] (25 mg/kg/day) and in data set [2] (50 mg/kg/day) was 0/6 throughout. Further, the inhibition in vivo at 12.5 mg/kg in data set [2] (setting [5]) is 48.3%. Besides, the inhibition in vivo at 25 mg/kg in data set [2] (setting [6]) is 54%. Besides, in data set [2] (setting [7]), the inhibition in vivo at 50 mg/kg was determined as 72%.

For the compound `CC(=O)NC(COC(C)=O)C(=O)OC[C@H]1CN2C(=O)C[C@@H]2O1` (mixture of isomers) [Example 75B, (3RS,5SR)-3-(2-Acetamido-3-acetoxypropanoyl)oxymethyl-4-oxa-1-azabicyclo[3.2.0]heptan-7-one], the IC50 in data set [1] is 0.567 µg/mL (≈ 1.8 µM). Moreover, the “Mortality in 12 days” value in data set [2] (12.5 mg/kg/day) is listed as 0/6; in data set [2] (25 mg/kg/day), 0/6; in data set [2] (50 mg/kg/day) it was 4/6. Moreover, the inhibition in vivo at 12.5 mg/kg in data set [2] (setting [5]) worked out at 37.8%. In addition, the inhibition in vivo at 25 mg/kg in data set [2] (setting [6]) is 65.1%. Moreover, the inhibition in vivo at 50 mg/kg in data set [2] (setting [7]) turned out to be 77.8%.

Consider `COc1ccc(S(=O)(=O)NC[C@H]2CN3C(=O)C[C@@H]3O2)cc1` (relative stereo) [Example 38, (3RS,5RS)-3-N-(4-Methoxybenzenesulfonyl)aminomethyl-4-oxa-1-azabicyclo[3.2.0]heptan-7-one], for which the IC50 in data set [1] was determined as 0.158 µg/mL (≈ 0.506 µM). The “Mortality in 12 days” value in data set [2] (25 mg/kg/day) is recorded as 0/6; in data set [2] (50 mg/kg/day) it was 0/6; in data set [2] (100 mg/kg/day), 1/6. The inhibition in vivo at 25 mg/kg in data set [2] (setting [6]) was 26.5%. In addition, the inhibition in vivo at 50 mg/kg in data set [2] (setting [7]) stood at 55.4%. Moreover, in data set [2] (setting [4]), the inhibition in vivo at 100 mg/kg worked out at 72%.

Regarding `NCC(=O)NC[C@@H]1CN2C(=O)C[C@H]2O1` (relative stereo) [Example 43, (3RS,5RS)-3-N-(Aminoacetyl)aminomethyl-4-oxa-1-azabicyclo[3.2.0]heptan-7-one hydrochloride], the IC50 in data set [1] worked out at 0.429 µg/mL. Also, the “Mortality in 12 days” value in data set [2] (6.3 mg/kg/day), in data set [2] (12.5 mg/kg/day), in data set [2] (25 mg/kg/day) and in data set [2] (50 mg/kg/day) was 0/6 each time. The inhibition in vivo at 6.3 mg/kg in data set [2] (Mus musculus, Sarcoma-180, ip, 288 h, 6.3 mg/kg/day, tumor s.c., tumor weight day 12, read-out: % Inhibition of tumor growth) stood at 48.7%. Besides, in data set [2] (setting [5]), the inhibition in vivo at 12.5 mg/kg came to 57%. The inhibition in vivo at 25 mg/kg in data set [2] (setting [6]) was 58.9%. The inhibition in vivo at 50 mg/kg in data set [2] (setting [7]) came to 72.1%.

Turning to `CC(=O)NCC(=O)NC[C@@H]1CN2C(=O)C[C@H]2O1` (relative stereo) [Example 44, (3RS,5RS)-3-N-(N-Acetylaminoacetyl)aminomethyl-4-oxa-1-azabicyclo[3.2.0]heptan-7-one], the IC50 in data set [1] was 0.341 µg/mL (≈ 1.41 µM). Further, the “Mortality in 12 days” value in data set [2] (12.5 mg/kg/day) is 0/6; in data set [2] (25 mg/kg/day), 4/6. Besides, the inhibition in vivo at 12.5 mg/kg in data set [2] (setting [5]) stood at 45.9%. Also, in data set [2] (setting [6]), the inhibition in vivo at 25 mg/kg was determined as 85.3%.
